According to patent publication US20150065709A1, “Aminoquinazoline Derivative And Use Thereof In Preparing Anti-Malignant Tumor Medicament” (METABOMICS, INC, priority 2012, published 2015):
Read-outs that look alike come from different tables or passages of the source.

Key:
[1] = Long-term toxicity experiment (28 days) in rats; type: in vivo
Procedure: (§1) Experiment Animals: rats, male, 6-8 weeks of age, body weight: 180-250 g; dogs, male, about 24 months, body weight: 7-10 kg.
(§2) Preparation of sample: in rat's experiments the mixed formulation powder of the compound Ie was formulated into 0.1, 0.3 and 1 mg/mL homogeneous suspension for use; administration route: oral administration; […]. In dog's experiments the tablets of compound Ie were fed to dogs. […].
(§3) Sample collection: blood was collected at the time points of 1, 10, 20 and 28 days respectively, about 120-200 μL whole blood was collected from 3 animals at each time point. Blood was collected at 1 h, 4 h, 8 h and 24 h after administration.
(§4) Sample analysis: the collected samples were detected by LC-MS/MS, and the instrument model was SHIMADZU20 A-API4000.
(§5) Pharmacokinetic data analysis: the obtained plasma concentration data were fitted and calculated using WinNolin according to non-compartment model.

[2] = Long-term toxicity experiment (28 days) in dogs; type: in vivo; settings: dogs, 5 mg/kg, 28 days; reaction of Afatinib group greater than compound Ie group
Procedure: as §1, §2, §3, §4, §5

EGFR = EGFR (Homo sapiens, UniProt P00533); assay: Caliper Mobility Shift Assay, inhibition of EGFR kinase activity; type: biochemical
Sequence of EGFR (P00533 25-1210): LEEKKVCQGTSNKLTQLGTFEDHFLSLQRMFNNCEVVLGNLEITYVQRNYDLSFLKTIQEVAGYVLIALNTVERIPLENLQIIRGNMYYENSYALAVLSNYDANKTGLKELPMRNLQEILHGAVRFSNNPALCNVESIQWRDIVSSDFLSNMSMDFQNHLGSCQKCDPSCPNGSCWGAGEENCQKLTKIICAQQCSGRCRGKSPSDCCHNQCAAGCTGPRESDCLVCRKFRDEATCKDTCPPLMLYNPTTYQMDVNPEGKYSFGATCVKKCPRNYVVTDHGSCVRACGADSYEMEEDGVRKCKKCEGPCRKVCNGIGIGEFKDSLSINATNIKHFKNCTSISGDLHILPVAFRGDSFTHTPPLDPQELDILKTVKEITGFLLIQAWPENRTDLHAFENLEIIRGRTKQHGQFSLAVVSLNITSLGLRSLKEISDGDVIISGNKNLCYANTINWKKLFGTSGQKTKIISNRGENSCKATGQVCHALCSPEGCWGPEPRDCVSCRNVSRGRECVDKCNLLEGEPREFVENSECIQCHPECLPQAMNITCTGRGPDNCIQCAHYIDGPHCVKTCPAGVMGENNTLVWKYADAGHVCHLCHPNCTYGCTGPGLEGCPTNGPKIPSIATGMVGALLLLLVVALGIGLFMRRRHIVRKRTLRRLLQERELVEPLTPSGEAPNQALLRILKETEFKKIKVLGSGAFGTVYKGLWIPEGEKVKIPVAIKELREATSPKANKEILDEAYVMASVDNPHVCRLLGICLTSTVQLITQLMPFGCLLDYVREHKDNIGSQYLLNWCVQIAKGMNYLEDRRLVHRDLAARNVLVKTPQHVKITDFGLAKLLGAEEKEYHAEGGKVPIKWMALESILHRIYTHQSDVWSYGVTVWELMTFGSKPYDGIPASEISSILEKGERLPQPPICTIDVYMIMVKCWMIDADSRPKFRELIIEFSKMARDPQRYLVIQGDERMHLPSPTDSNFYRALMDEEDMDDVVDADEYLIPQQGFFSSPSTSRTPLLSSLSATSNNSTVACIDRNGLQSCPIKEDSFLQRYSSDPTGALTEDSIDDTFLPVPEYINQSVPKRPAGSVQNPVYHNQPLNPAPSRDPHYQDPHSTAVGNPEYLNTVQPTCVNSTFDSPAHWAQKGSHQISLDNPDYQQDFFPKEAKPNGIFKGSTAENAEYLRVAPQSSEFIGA

HER2 = HER2 (Homo sapiens, UniProt P04626); assay: Caliper Mobility Shift Assay, inhibition of HER2 kinase activity; type: biochemical
Sequence of HER2 (P04626 23-1255): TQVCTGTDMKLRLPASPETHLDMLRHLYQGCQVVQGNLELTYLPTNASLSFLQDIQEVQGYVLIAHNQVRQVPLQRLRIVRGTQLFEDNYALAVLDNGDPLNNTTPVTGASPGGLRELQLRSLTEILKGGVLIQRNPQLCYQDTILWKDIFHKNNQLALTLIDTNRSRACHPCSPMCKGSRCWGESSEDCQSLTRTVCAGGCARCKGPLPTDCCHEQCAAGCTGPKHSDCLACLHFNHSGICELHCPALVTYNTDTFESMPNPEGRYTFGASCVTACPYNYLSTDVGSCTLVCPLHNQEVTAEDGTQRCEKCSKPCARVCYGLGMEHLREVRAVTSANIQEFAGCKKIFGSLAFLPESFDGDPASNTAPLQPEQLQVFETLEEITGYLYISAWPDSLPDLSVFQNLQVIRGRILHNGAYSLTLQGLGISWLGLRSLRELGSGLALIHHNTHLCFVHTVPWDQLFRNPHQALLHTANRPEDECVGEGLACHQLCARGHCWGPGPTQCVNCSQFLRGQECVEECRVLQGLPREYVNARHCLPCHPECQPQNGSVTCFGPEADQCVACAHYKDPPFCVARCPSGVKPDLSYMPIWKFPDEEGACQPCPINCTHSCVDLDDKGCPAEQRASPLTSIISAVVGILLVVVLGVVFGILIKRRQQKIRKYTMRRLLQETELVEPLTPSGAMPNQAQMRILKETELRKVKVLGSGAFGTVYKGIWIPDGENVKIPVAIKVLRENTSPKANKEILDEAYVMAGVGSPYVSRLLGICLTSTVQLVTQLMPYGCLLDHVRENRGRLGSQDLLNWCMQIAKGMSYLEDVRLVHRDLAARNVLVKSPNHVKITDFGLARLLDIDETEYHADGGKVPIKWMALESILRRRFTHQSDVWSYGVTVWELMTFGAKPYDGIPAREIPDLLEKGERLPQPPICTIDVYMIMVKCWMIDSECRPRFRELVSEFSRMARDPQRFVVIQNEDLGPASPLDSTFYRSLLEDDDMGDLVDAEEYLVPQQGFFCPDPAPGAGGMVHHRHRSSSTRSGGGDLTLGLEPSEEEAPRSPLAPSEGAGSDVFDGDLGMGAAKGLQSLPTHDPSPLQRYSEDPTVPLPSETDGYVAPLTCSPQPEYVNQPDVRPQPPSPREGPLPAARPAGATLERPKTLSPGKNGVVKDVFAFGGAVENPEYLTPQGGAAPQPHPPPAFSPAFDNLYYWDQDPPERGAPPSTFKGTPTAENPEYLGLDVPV

EGFR kinases = EGFR kinases (Homo sapiens, UniProt P00533); assay: Reversible inhibition test of enzyme activity of EGFR kinases; type: biochemical
Sequence of EGFR kinases (P00533 25-1210): as the sequence (P00533 25-1210) above

A431 = assay: Inhibition of tumor cells, MTS method; type: cell-based; settings: Homo sapiens, A-431, 72 hours
Procedure: (§6) (1) Compounds: in vitro studies the test compounds was dissolved in 100% DMSO and diluted until the final concentration of DMSO was 0.1%. The 0.1% (v/v) DMSO was added into culture medium as solvent control. 9 concentration gradients were tested and each gradient was repeated twice. (2) Tumor cell lines: the tumor cell lines were cultivated in RPMI10 culture medium containing 10% fetal calf serum in incubator at 37° C. in a 5% CO2 air incubator. The tested tumor cell lines were: BT474, MDA-MB-231, SK-Br-3, A431, H292, H1975, HCC827, A549, H1650 and H1734. (3) MTS method: cells were seeded into 96-well plate to give a density of about 3000 cells per well, and incubated overnight in a humidified incubator at 37° C. In the next day, the test compounds were added to the wells and further incubated for 72 hours. The cell activity was detected using MTS. IC50 was calculated (the concentration of a compound that is required for 50% inhibition of the cell growth versus the DMSO control group, using nonlinear regression analysis of software GraphPad Prism). […] In a 96-well plate, each test compound was tested at 9 dosage concentrations and each dosage was made in triplicate. Samples were added in 100 μL/well. Cell control and negative control wells contained diluents instead of compounds. Except the negative control well, 100 μL cell suspension of complete medium was added into each test well, wherein corresponding cell numbers were included to assure that the cells in cell control well just cover the bottom of the well as the required incubation time was reached. The plate was incubated in a CO2 incubator at 37° C. for 48 hours. The liquid in test wells was removed by pipetting. 100 μL CCK-8 (Cell counting Kit-8, purchased from DOJINDO Molecular Technologies) detection liquid (containing 10% CCK-8, 5% FBS corresponding medium) was added into each test well, then the plate was incubated in a CO2 incubator under at 37° C. for 3 hours. OD value was detected by ELIASA at A450 nm. Cell viability percentage (%)=(O.D. test compound-O.D. blank)/(O.D. control-O.D. blank)×100. Mean value was calculated for each 3 repeated wells, and IC50 was calculated using nonlinear regression (fitted curve) data analysis method.

A549 = assay: Inhibition of tumor cells, MTS method; type: cell-based; settings: Homo sapiens, 72 hours
Procedure: as §6

BT474 = assay: Inhibition of tumor cells, MTS method; type: cell-based; settings: Homo sapiens, BT-474, 72 hours
Procedure: as §6

H1650 = assay: Inhibition of tumor cells, MTS method; type: cell-based; settings: Homo sapiens, NCI-H1650, 72 hours
Procedure: as §6

H1734 = assay: Inhibition of tumor cells, MTS method; type: cell-based; settings: Homo sapiens, NCI-H1734, 72 hours
Procedure: as §6

H1975 = assay: Inhibition of tumor cells, MTS method; type: cell-based; settings: Homo sapiens, NCI-H1975, 72 hours
Procedure: as §6

H292 = assay: Inhibition of tumor cells, MTS method; type: cell-based; settings: Homo sapiens, NCI-H292, 72 hours
Procedure: as §6

HCC827 = assay: Inhibition of tumor cells, MTS method; type: cell-based; settings: Homo sapiens, 72 hours
Procedure: as §6

SK-Br-3 = assay: Inhibition of tumor cells, MTS method; type: cell-based; settings: Homo sapiens, 72 hours
Procedure: as §6

[3] = Pharmacokinetic experiments in CD-1 mice; type: in vivo; settings: male, mouse, plasma; for half-life: read-out: Terminal t1/2 (converted); for Vd: read-out: Vss
Procedure: Experiment animals: CD-1 mice, male, 6-7 weeks of age; body weight: 20-25 g; Preparation of samples: the test compounds respectively were formulated to 0.2 mg/mL (for intravenous administration) and 1.0 mg/mL (for oral administration) for use. Administration routes: oral administration/intravenous administration. Amount and frequency of administration: 5 mL/kg for single administration.
Sample collection: blood was collected at the time points of 5 min, 15 min, 30 min, 1 h, 2 h, 4 h, 8 h and 24 h, about […] whole blood was collected from 3 animals at each time point. All of the animals were euthanized after the experiments.
Sample analysis: the collected samples were detected by LC-MS/MS, and the instrument model is SHIMADZU20A-API4000.
as §5

MDA-MB-231 = assay: Inhibition of tumor cells, MTS method; type: cell-based; settings: Homo sapiens, 72 hours
Procedure: as §6

IC50 (EGFR)	IC50 (HER2)	IC50 (A431)	IC50 (A549)	IC50 (BT474)	IC50 (H1650)	IC50 (H1734)	IC50 (H1975)	IC50 (H292)	IC50 (HCC827)	IC50 (SK-Br-3)	AUC(0-inf) ([3]; 1 mg/kg Intravenous Injection)	AUC(0-t) ([3]; 1 mg/kg Intravenous Injection)	MRT inf ([3]; 1 mg/kg Intravenous Injection)	clearance ([3]; 1 mg/kg Intravenous Injection)	half-life ([3]; 1 mg/kg Intravenous Injection)	Vd ([3]; 1 mg/kg Intravenous Injection)	AUC(0-t) ([3]; 5 mg/kg Oral Administration)	Cmax ([3]; 5 mg/kg Oral Administration)	Tmax ([3]; 5 mg/kg Oral Administration)	Structure (SMILES)	further results
																				CN(C)C/C=C/C(=O)Nc1cc2c(Nc3ccc(F)c(Cl)c3)ncnc2cc1O[C@H]1CCOC1 [Afatinib, reference compound]	toxicity reaction ([1]; rat, in vivo, 10 mg/kg): very significant toxicity reaction; weight during recovery phase after drug withdrawal ([1]; rat, in vivo, 10 mg/kg): reduced weight during the recovery phase; toxicity reaction ([1]; rats, 5 mg/kg, 28 days): significant toxicity reaction; toxicity reaction [2]: toxicity reactions
2 nM	13 nM	4.91 µM	5.93 µM	0.264 µM	6.57 µM	1.34 µM	0.882 µM	0.873 µM	0.015 µM	0.42 µM	0.11 µg·h/mL	0.104 µg·h/mL	0.616 h	9.18 L/h/kg	0.729 h	5.47 L/kg	0.0914 µg·h/mL	0.0314 µg/mL	1.17 h	CN(C/C=C/C(=O)Nc1cc2c(Nc3ccc(F)c(Cl)c3)ncnc2cc1OC1CCOC1)Cc1ccccc1 (stereo not drawn) [Compound Ia]	reversibility of inhibition of EGFR kinases (EGFR kinases): irreversibility; AUC(0-inf) ([3]; 5 mg/kg Oral Administration): 0.14 µg·h/mL; half-life ([3]; 5 mg/kg Oral Administration): 1.76 h
3.9 nM	90 nM	0.899 µM		3.18 µM			30.8 µM	0.502 µM	0.157 µM	3.1 µM										O=C(/C=C/c1ccccn1)Nc1cc2c(Nc3ccc(F)c(Cl)c3)ncnc2cc1OC1CCOC1 (stereo not drawn) [Compound Ib]	IC50 (MDA-MB-231): 4.01 µM
1.3 nM	15 nM	13 µM	> 10 µM	0.278 µM	> 10 µM	5.26 µM	0.715 µM	0.727 µM	0.012 µM	0.418 µM	0.206 µg·h/mL	0.163 µg·h/mL	3.01 h	5.23 L/h/kg	2.63 h	14.7 L/kg	0.283 µg·h/mL	0.0667 µg/mL	2 h	COc1cc2ncnc(Nc3ccc(F)c(Cl)c3)c2cc1NC(=O)/C=C/CN(C)Cc1ccccc1 [Compound Ic]	IC50 (MDA-MB-231): 13.9 µM
5.1 nM	> 10000 nM			2.14 µM				44.1 µM	0.04 µM	0.155 µM										COc1cc2ncnc(Nc3ccc(F)c(Cl)c3)c2cc1NC(=O)/C=C/c1ccccn1 [Compound Id]	
